The values that follow come from patent US20040044037A1, “Amidino-urea serotonin receptor ligands and compositions, their pharmaceutical uses, and methods for their snythesis” (priority 2003, published 2004).

Some results are limits rather than exact numbers.

Assay [1] deals with T1, human 5-HT6 (h5-HT6) receptors (Homo sapiens, UniProt P50406).
T1 construct: purchased Receptor Biology, Inc. (Beltsville, Md.); host or cells: HEK-293 cells
Description: Competition radioligand binding, h5-HT6. To be noted: [3H]LSD; membranes of HEK-293 cells; read-out: Ki 5-HT6.

Assay [2] deals with T2, human 5-HT7B (h5-HT7b) receptors (Homo sapiens, UniProt P34969).
T2 construct: expressed in transfected cells
T2 sequence (P34969 1-432 limits assumed): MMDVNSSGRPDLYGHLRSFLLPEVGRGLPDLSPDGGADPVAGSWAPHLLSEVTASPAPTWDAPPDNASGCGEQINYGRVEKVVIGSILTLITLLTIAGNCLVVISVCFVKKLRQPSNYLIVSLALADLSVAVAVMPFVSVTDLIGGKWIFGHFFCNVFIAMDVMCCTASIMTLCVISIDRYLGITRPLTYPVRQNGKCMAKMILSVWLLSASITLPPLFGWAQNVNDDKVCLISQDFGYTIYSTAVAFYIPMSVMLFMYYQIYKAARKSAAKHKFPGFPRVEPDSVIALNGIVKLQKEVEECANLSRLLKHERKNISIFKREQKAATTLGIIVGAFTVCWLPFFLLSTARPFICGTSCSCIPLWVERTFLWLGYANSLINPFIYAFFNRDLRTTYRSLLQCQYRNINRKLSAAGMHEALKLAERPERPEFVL
Description: Competition radioligand binding, h5-HT7b. The settings on record: [3H]5-CT; membranes of HEK 293 cells; read-out: Ki 5-HT7. From the text:
The compounds of the invention interact with 5-HT receptors and show selectivity for 5-HT receptors. The 5-HT receptor binding properties of the compounds are identified by competitive radioligand binding assays wherein membranes prepared from transfected cells expressing the 5-HT receptor subtype of interest. “Binding constants” refers herein to Ki values measured by inhibition of the binding of radiolabelled ligands that are selective for the 5-HT receptor type being studied. For 5-HT7 receptors, Ki values are determined by measuring the inhibition of 5-carboxamidotryptamine (5-CT) binding, wherein 5-HT7 receptors were incubated with the radiolabelled high affinity ligand, 5-carboxamidotryptamine ([^3H]5-CT), in the presence and absence of the compounds of the invention, at varying concentrations. The compounds of the invention have high binding affinity for serotonin receptors as measured by dissociation constant Ki. […] “Selectivity” for receptor type, in the context of this invention, refers to the ratio of binding constants for the two receptor types being compared. […] The compounds of the present invention preferably show selectivity for 5-HT7 receptors over other serotonin receptor subtypes of greater than about 100. The compounds of the present invention also preferably show selectivity for 5-HT7 receptors over other receptor types, such as dopamine D2, of greater than about 100.
Cells and Membrane Preparation: HEK 293 cells stably expressing human 5-HT7B (h5-HT7b) receptors were grown in Dulbecco's Modified Eagle's Medium (DMEM; Gibco) without sodium pyruvate and containing 4.5 g/L glucose, L-glutamine/penicillin-streptomycin (Gemini), 10% fetal bovine serum and 250 mg/l of the antibiotic, G418 (Geneticin) as previously described (Jasper, J. R., Kosaka, A., To, Z. P., Chang, D. J. and Eglen, R. M. (1997) Cloning, expression and pharmacology of a truncated splice variant of the human 5-ht7 receptor (h5-ht7b). Br. J. Pharmacol. 122(1):126-132.). Cell pellets were homogenized in approximately 50 mL of homogenization buffer (buffer A) containing: 50 mM Tris (pH 7.4), 2 mM EGTA, 0.32 M sucrose, 10 μM PMSF, 1 μg/mL leupeptin, 5 μg/mL Pepstatin A, and 5 μg/mL aprotinin using an UltraTurax homogenizer (Tekmar Company, Cincinnati, Ohio) at 80% maximum setting three times for 10 sec. Cell pellets were centrifuged at 4° C. at 1,500×g for 10 min in a Beckman GS-6R centrifuge. Pellets were resuspended in buffer A, homogenized and centrifuged as described above. Pooled supernatants were transferred to centrifuge bottles and centrifuged at 4° C. at 20,000×g for 30 min in a Beckman J2-HS centrifuge. Cell pellets were resuspended in buffer A and were centrifuged at 4° C. at 20,000×g for 30 min. Cell pellets were resuspended in buffer A and stored at −70° C. in aliquots of 2.5 mg/mL total membrane protein. Total membrane protein was assessed utilizing a BCA kit (Pierce; Rockford, Ill.). Membranes containing human 5-HT1a or 5HT2a receptors expressed in CHO K1 cells were prepared as described above.
Radioligand Binding Assays: For 5-HT7 saturation binding experiments, HEK-293 cell membranes expressing h5-HT7 receptors (5-10 μg membrane protein/well) were incubated in duplicate with [^3H]5-CT (approximately 0.2 nM) in binding assay buffer containing: 50 mM HEPES (pH 7.4), 0.5 mM EDTA, 10 mM MgCl2, 10 μM pargyline to inhibit monoamine oxidase activity, and 0.1% sodium ascorbate, in a final volume of 200 μL in 96-well polypropylene plates for 2 hours at 37° C. Nonspecific binding was determined by incubating membranes with 1 μM 5-HT. All radioligand binding assays were stopped by rapid filtration onto 96-well GF/C filter plates (Packard) soaked in 0.1% polyethylenimine. Filters were washed three times with ice-cold phosphate-buffered saline (PBS) wash buffer containing 50 mM NaPO4 (pH 7.4), 0.9% NaCl, 2 mM MgCl2 and 0.02% NaN3. The filters were then counted using liquid scintillation in a Packard Topcount scintillation counter. […]

For assay [3], the target named is T3, human D2S dopamine (hD2S-DA) receptors (Homo sapiens, UniProt P14416).
T3 construct: purchased Receptor Biology, Inc. (Beltsville, Md.); host or cells: A9 L cells
T3 sequence (P14416 1-414 isoform P14416-2): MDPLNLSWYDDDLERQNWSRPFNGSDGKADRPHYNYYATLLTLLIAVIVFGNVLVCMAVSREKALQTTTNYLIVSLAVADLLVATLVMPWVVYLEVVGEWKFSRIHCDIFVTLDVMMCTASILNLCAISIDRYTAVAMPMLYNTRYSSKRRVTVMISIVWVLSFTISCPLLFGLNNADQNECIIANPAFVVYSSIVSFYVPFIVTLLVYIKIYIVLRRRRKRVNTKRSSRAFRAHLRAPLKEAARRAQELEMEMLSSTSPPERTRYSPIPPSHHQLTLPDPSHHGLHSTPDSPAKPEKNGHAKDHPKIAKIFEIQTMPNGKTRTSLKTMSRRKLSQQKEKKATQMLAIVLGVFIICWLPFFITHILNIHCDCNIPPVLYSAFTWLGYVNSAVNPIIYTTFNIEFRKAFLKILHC
In words: Competition radioligand binding, hD2S dopamine. The settings on record: [3H]Spiperone; membranes of A9 L cells; read-out: Ki D2.

T1 sequence (P50406 whole entry): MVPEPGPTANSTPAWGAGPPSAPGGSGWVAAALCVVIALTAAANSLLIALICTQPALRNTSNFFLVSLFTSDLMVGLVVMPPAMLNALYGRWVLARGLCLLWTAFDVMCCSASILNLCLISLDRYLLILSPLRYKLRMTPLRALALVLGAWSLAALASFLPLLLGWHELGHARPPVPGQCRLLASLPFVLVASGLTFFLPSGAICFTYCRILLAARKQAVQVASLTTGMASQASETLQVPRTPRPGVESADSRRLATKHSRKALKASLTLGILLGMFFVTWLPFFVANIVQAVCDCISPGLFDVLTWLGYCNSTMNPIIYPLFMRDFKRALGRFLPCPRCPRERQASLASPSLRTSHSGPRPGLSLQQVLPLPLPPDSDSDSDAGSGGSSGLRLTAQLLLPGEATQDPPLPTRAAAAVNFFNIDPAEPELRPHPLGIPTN

As to `N=C(NCc1cccc2ccccc12)NC(=O)NCC1CCNCC1` [Example 2, 4-({[({Imino[(1-naphthylmethyl)amino]methyl}amino)carbonyl]amino}methyl)piperidine], the Ki (as a rule, a measure of affinity in units of concentration, obtained from inhibition or displacement) in assay [1] was 3200 nM; in assay [2], 46 nM; in assay [3], over 2500 nM.
As to `COC(=O)NC(=N)NCc1cccc2ccccc12` [Example 4, Methylimino[(1-naphthylmethyl)amino]methylcarbamate], in assay [2], the Ki was found to be 820 nM.
Regarding `N=C(NC(=O)NCc1cccc(Cl)c1Cl)NC1CCCCC1O` (stereo not drawn) [Example 9, 1,2-Dichloro-3-{[({[[(2-hydroxycyclohexyl)amino](imino)methyl]amino}carbonyl)amino]methyl}benzene], in assay [2], the Ki amounted to 320 nM.
Take `Cc1ccccc1CNC(=O)NC(=N)NCCc1ccccn1` [Example 10, 2-(2-{[Imino([{(2-methylbenzyl)amino]carbonyl}amino)methyl]amino}ethyl)pyridine]: the figures for the Ki in assay [2] and in assay [3] were 250 nM and over 2500 nM, respectively.
In the case of `N=C(NCc1cccc2ccccc12)NC(=O)NCCCn1ccnc1` [Example 11], the Ki in assay [1] is 910 nM; in assay [2] it was 25 nM; in assay [3] it was 920 nM.
Consider `N=C(NCc1cccc2ccccc12)NC(=O)N1CCCC(C(N)=O)C1` (stereo not drawn) [Example 12, 1-[({Imino[(1-naphthylmethyl)amino]methyl}amino)carbonyl]-3-piperidine carboxamide], for which the Ki in assay [2] worked out at 180 nM.
`CN1CCCC1CCNC(=O)NC(=N)NCc1cccc2ccccc12` (stereo not drawn) [Example 13]: the Ki in assay [1] is 3050 nM; in assay [2] it was 32 nM; in assay [3], 1910 nM.
The corresponding values for `N=C(NCc1cccc2ccccc12)NC(=O)NC1CCCCC1O` (stereo not drawn) [Example 14, 1-({[({[(2-Hydroxycyclohexyl)amino]carbonyl}amino)(imino)methyl]amino}methyl)naphthalene] are 1250 nM, 11 nM and 460 nM.
As to `N=C(NCc1cccc2ccccc12)NC(=O)NCCCO` [Example 16, 1-({[({[(3-Hydroxypropyl)amino}carbonyl}amino)(imino)methyl]amino}methyl)naphthalene], the Ki amounted to 480 nM in assay [1], 21 nM in assay [2] and 500 nM in assay [3].
Regarding `N=C(NCc1cccc2ccccc12)NC(=O)NCc1cccc(CN)c1` [Example 17, 1-({[[({[3-(Aminomethyl)benzyl]amino}carbonyl)amino](imino)methyl]amino}methyl)naphthalene], the Ki in assay [1] is 680 nM; in assay [2], 11 nM; in assay [3] it was 480 nM.
Turning to `N=C(NCc1cccc2ccccc12)NC(=O)N[C@@H](CO)c1ccccc1` [Example 19, 1-({[[({[(1R)-2-Hydroxy-1-phenylethyl]amino}carbonyl)amino](imino)methyl]amino}methyl)naphthalene], the values for the Ki in assay [1], in assay [2] and in assay [3] were 930 nM, 110 nM and 200 nM, respectively.
As for `N=C(NCc1cccc2ccccc12)NC(=O)NCc1cccs1` [Example 20, 2-({[({Imino[(1-naphthylmethyl)amino]methyl}amino)carbonyl]amino}methyl)thiophene], the values for the Ki in assay [1], in assay [2] and in assay [3] were 1360 nM, 16 nM and 540 nM, respectively.
For `CC(=O)NCCNC(=O)NC(=N)NCc1cccc2ccccc12` [Example 26, N-(2-{[({Imino[(1-naphthylmethyl)amino]methyl}amino)carbonyl]amino}ethyl)acetamide], in that order: 1450 nM, 10 nM and over 2500 nM.
The corresponding values for `N=C(NCc1cccc2ccccc12)NC(=O)Nc1cccc(C(N)=O)c1` [Example 27, 3-{[({Imino[(1-naphthylmethyl)amino]methyl}amino)carbonyl]amino}benzamide] are 79 nM, 18 nM and over 2500 nM.
As for `COc1ccc(CNC(=O)NC(=N)NCc2cccc3ccccc23)cc1` [Example 28, 1-({[Imino({[(4-methoxybenzyl)amino]carbonyl}amino)methyl]amino}methyl)naphthalene], the Ki in assay [1] turned out to be 3400 nM; in assay [2] it was 43 nM; in assay [3] it was 500 nM.
On to `CC(O)CNC(=O)NC(=N)NCc1cccc2ccccc12` (stereo not drawn) [Example 30, 1({[({[(2-Hydroxypropyl)amino]carbonyl}amino)(imino)methyl]amino}methyl) naphthalene], for which the figures for the Ki in assay [1], in assay [2] and in assay [3] were 1510 nM, 13 nM and 1580 nM, respectively.
On to `N=C(NCc1cccc2ccccc12)NC(=O)NCCc1ccc(O)cc1` [Example 31, 1-({[({[(4-Hydroxyphenethyl)amino]carbonyl}amino)(imino)methyl]amino}methyl) naphthalene], for which the Ki in assay [2] is 19 nM.
For `N=C(NCc1cccc2ccccc12)NC(=O)NCc1ccc(F)cc1` [Example 32, 1-({[({[(4-Fluorobenzyl)amino]carbonyl}amino)(imino)methyl]amino}methyl)naphthalene], the Ki in assay [1] came to 1300 nM; in assay [2], 24 nM; in assay [3], 780 nM.
For the molecule `N=C(NCc1cccc2ccccc12)NC(=O)NCCc1ccc(N)cc1` [Example 33, 1-({[({[(4-Amninophenethyl)amino]carbonyl}amino)(imino)methyl]amino}methyl) naphthalene], the inhibition constant (Ki) in assay [1] is 1240 nM; in assay [2] it was 48 nM; in assay [3], 900 nM.
As to `N=C(NCc1cccc2ccccc12)NC(=O)NC1CC1` [Example 34, 1-({[{[(Cyclopropylamino)carbonyl]amino}(imino)methyl]amino}methyl)naphthalene], the Ki in assay [1] turned out to be 7750 nM; in assay [2], 13 nM; in assay [3] it was 1790 nM.
For `N=C(NCc1cccc2ccccc12)NC(=O)N1CCNCC1` [Example 37, N-(1-Naphthylmethyl)-N′-(1-piperazinylcarbonyl)guanidine], the Ki in assay [2] worked out at 930 nM.
Turning to `CNC(=O)/N=C(/NCc1cccc2ccccc12)NC(=O)NC` [Example 52, N-Methyl-N′-{(Z)-{[(methylamino)carbonyl]amino}[(1-naphthylmethyl)amino]methylidene}urea], the Ki in assay [2] came out at 1010 nM.
For the molecule `COc1ccccc1N1CCN(C(=O)NC(=N)N[C@H](C)c2ccc3ccccc3c2)CC1` [Example 82, N-{[4-(2-Methoxyphenyl)-1-piperazinyl]carbonyl}-N′-[(1R)-1-(2-naphthyl)ethyl]guanidine], in assay [2], the Ki amounted to 1080 nM.
For `COc1ccccc1N1CCN(C(=O)NC(=N)N[C@H](C)c2cccc3ccccc23)CC1` [Example 83, N-{[4-(2-Methoxyphenyl)-1-piperazinyl]carbonyl}-N′-[(1R)-1-(1-naphthyl)ethyl]guanidine], the Ki in assay [2] was 750 nM.
On to `COc1ccc(CNC(=N)NC(C)=O)c2ccccc12` [Example 88, N-Acetyl-N′-[(4-methoxy-1-naphthyl)methyl]guanidine], for which the Ki in assay [2] was 1230 nM.
In the case of `O=C(Nc1nc2ccccc2[nH]1)Nc1cc(F)ccc1F` [Example 89], the Ki in assay [2] amounted to 2700 nM.
